≈ marks a conversion by molar mass, not a printed value. Numbered stars: 1 amine (or outer) side, 2 acyl side, 3 side chain; on linkers, the order of the positions; unused ones are H or OH. Side chains are listed from the residue outwards. Peptide text beside a SMILES is read from it. * marks the point of attachment. C20 diacid = O=C(O)CCCCCCCCCCCCCCCCCCC(=O)*; γGlu = O=C(O)[C@H](CCC(=O)[*:2])N[*:1]

The nature of data set [1]: Assay (IV) determination of solubility. The format is physicochemical. The method, then: Assay (IV)—Determination of Solubility
The mimylin peptide was dissolved in water at ˜500 nmol/ml and mixed 1:1 with a series of buffers (100 mM glycylglycine pH 3.0, 100 mM glycylglycine pH 4.0, 100 mM glycylglycine pH 5.0, 100 mM bistrispropane pH 6.0, 100 mM bistrispropane pH 6.5, 100 mM bistrispropane pH 7.0, 100 mM bistrispropane pH 7.5, 100 mM bistrispropane pH 8.0).

The target of another data set is T1, rat calcitonin receptor (Rattus norvegicus, UniProt P32214).
T1 construct: expressed in transfected cells; host or cells: BHK tk'ts 13 (transient, FuGENE 6)
T1 sequence (P32214 25-479 isoform P32214-2 limits assumed): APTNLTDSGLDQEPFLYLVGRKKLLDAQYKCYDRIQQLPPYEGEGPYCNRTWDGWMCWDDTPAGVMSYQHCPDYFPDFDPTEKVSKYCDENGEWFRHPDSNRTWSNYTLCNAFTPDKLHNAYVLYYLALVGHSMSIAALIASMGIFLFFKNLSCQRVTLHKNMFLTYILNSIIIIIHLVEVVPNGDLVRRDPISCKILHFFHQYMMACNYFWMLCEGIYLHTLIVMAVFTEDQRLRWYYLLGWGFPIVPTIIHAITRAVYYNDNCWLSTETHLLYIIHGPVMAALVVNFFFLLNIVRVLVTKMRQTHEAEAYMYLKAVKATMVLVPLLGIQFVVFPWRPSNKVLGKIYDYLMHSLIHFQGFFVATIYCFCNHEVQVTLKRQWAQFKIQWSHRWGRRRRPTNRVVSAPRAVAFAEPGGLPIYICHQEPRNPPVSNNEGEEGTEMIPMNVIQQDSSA
In words: Assay (VIII) binding to the rat calcitonin receptor. The settings on record: membranes; read-out: rCT-R binding IC50. The method, then: The morning after, the plates were washed three times in HBSS (4° C.), and lyzed in Lysis buffer (0.1 M NaOH), 1% SDS. Scintillation cocktail (MicroScint40®) was added and the plates were shaken at 500 rpm for a short period. The plate was incubated at room temperature in the dark for 1 hour and Read on a TopCounter™ (Packard). The IC50 was calculated using (one site binding competition analysis) GraphPad Prism5 as a measure of receptor affinity. Assay (VIII)—Determination of Binding to the Rat Calcitonin Receptor
The assay was performed as described above (Assay (VII)—Determination of binding to the human calcitonin receptor) with the exception that we used membranes prepared from BHK tk'ts 13 cells that were transiently transfected with the rat calcitonin receptor. The BHK tk'ts 13 cells were transiently transfected with rat calcitonin receptor using FuGENE® 6 (Roche), according to the manufacturer's recommendations. Cells were grown in DMEM with 10% FBS and 1% Pen/Strep.

Turning to `CC(C)C[C@H](NC(=O)[C@H](C)NC(=O)[C@H](C)NC(=O)[C@@H](NC(=O)[C@H](CO)NC(=O)[C@H](CC(C)C)NC(=O)[C@H](CCC(=O)O)NC(=O)[C@H](CO)NC(=O)[C@H](C)NC(=O)CC[C@H](NC(=O)CCCCCCCCCCCCCCCCCCC(=O)O)C(=O)O)[C@@H](C)O)C(=O)NCC(=O)N[C@@H](CCCNC(=N)N)C(=O)N[C@@H](CC(C)C)C(=O)N[C@@H](CO)C(=O)N[C@@H](C)C(=O)N[C@@H](CCC(=O)O)C(=O)N[C@@H](CC(C)C)C(=O)N[C@@H](Cc1cnc[nH]1)C(=O)N[C@@H](CCC(=O)O)C(=O)N[C@@H](CC(C)C)C(=O)N[C@@H](C)C(=O)N[C@H](C(=O)N[C@@H](Cc1ccc(O)cc1)C(=O)N1CCC[C@H]1C(=O)N[C@@H](CCCNC(=N)N)C(=O)N[C@H](C(=O)N[C@@H](CCC(=O)O)C(=O)N[C@H](C(=O)NCC(=O)N[C@@H](CO)C(=O)NCC(=O)N[C@@H](C)C(=O)N1CCC[C@H]1C(N)=O)[C@@H](C)O)[C@@H](C)O)[C@@H](C)O` [compound 81, [N-terminal(C20 diacid-gGlu), des1, 23Y, 30S, 31G, 32A]mimylin] ({C20 diacid-γGlu}-ASELSTAALGRLSAELHELATYPRTETGSGAP-NH2), the Solubility entry in data set [1] (pH 3.0), in data set [1] (pH 4.0), in data set [1] (pH 5.0), in data set [1] (pH 6.0), in data set [1] (pH 6.5) and in data set [1] (pH 7.0) was “≧200 μM” throughout. Moreover, the Solubility entry in data set [1] (pH 7.5) and in data set [1] (pH 8.0) was “≧200 μM” throughout. Moreover, the IC50 (commonly the concentration that inhibits the measured activity by half) on rat calcitonin receptor came to 0.039 nM.
Consider `CC(C)C[C@H](NC(=O)[C@H](CCCNC(=N)N)NC(=O)CNC(=O)[C@H](CC(C)C)NC(=O)[C@@H](NC(=O)[C@H](C)NC(=O)[C@@H](NC(=O)[C@H](CO)NC(=O)[C@H](CC(C)C)NC(=O)[C@H](CCC(=O)O)NC(=O)[C@H](CO)NC(=O)[C@H](C)NC(=O)CC[C@H](NC(=O)CCCCCCCCCCCCCCCCCCC(=O)O)C(=O)O)[C@@H](C)O)[C@@H](C)O)C(=O)N[C@@H](CO)C(=O)N[C@@H](C)C(=O)N[C@@H](CCC(=O)O)C(=O)N[C@@H](CC(C)C)C(=O)N[C@@H](Cc1cnc[nH]1)C(=O)N[C@@H](CCC(=O)O)C(=O)N[C@@H](CC(C)C)C(=O)N[C@@H](CO)C(=O)N[C@H](C(=O)N[C@@H](Cc1ccc(O)cc1)C(=O)N1CCC[C@H]1C(=O)N[C@@H](CCCNC(=N)N)C(=O)N[C@H](C(=O)N[C@@H](CCC(=O)O)C(=O)N[C@H](C(=O)NCC(=O)N[C@@H](CO)C(=O)NCC(=O)N[C@@H](CO)C(=O)N[C@@H](Cc1ccc(O)cc1)C(N)=O)[C@@H](C)O)[C@@H](C)O)[C@@H](C)O` [compound 99, [N-terminal(C20 diacid-gGlu), des1, 9T, 21S, 23Y, 30S, 31G, 33Y]mimylin] ({C20 diacid-γGlu}-ASELSTATLGRLSAELHELSTYPRTETGSGSY-NH2), for which the Solubility entry in data set [1] (pH 3.0), in data set [1] (pH 4.0), in data set [1] (pH 6.0), in data set [1] (pH 6.5), in data set [1] (pH 7.0) and in data set [1] (pH 7.5) was “≧200 μM” each time. In addition, the Solubility entry in data set [1] (pH 8.0) is on record as “≧200 μM”. Further, the solubility (commonly how much of the substance goes into solution per volume) at 18 h in data set [1] (pH 5.0) is reported as 19 µM (≈ 72.9 µg/mL). Besides, the IC50 at rat calcitonin receptor is 0.069 nM.
For `CC(C)C[C@H](NC(=O)[C@H](C)NC(=O)[C@H](C)NC(=O)[C@@H](NC(=O)[C@H](CO)NC(=O)[C@H](CC(C)C)NC(=O)[C@H](CCC(=O)O)NC(=O)[C@H](CO)NC(=O)[C@H](C)N)[C@@H](C)O)C(=O)NCC(=O)N[C@@H](CCCNC(=N)N)C(=O)N[C@@H](CC(C)C)C(=O)N[C@@H](CO)C(=O)N[C@@H](C)C(=O)N[C@@H](CCCCNC(=O)CC[C@H](NC(=O)CCCCCCCCCCCCCCCCCCC(=O)O)C(=O)O)C(=O)N[C@@H](CC(C)C)C(=O)N[C@@H](Cc1cnc[nH]1)C(=O)N[C@@H](CCC(=O)O)C(=O)N[C@@H](CC(C)C)C(=O)N[C@@H](C)C(=O)N[C@H](C(=O)N[C@@H](CC(C)C)C(=O)N1CCC[C@H]1C(=O)N[C@@H](CCCNC(=N)N)C(=O)N[C@H](C(=O)N[C@@H](CCC(=O)O)C(=O)N[C@H](C(=O)NCC(=O)N[C@@H](CO)C(=O)NCC(=O)N[C@@H](CO)C(=O)N1CCC[C@H]1C(N)=O)[C@@H](C)O)[C@@H](C)O)[C@@H](C)O` [compound 53, [des1, 16K(C20 diacid-gGlu), 30S, 31G]mimylin] (H-ASELSTAALGRLSAK([γGlu-C20 diacid])LHELATLPRTETGSGSP-NH2), the Solubility entry in data set [1] (pH 3.0), in data set [1] (pH 4.0), in data set [1] (pH 5.0), in data set [1] (pH 6.0), in data set [1] (pH 6.5) and in data set [1] (pH 7.0) was “≧200 μM” throughout. Besides, the Solubility entry in data set [1] (pH 7.5) and in data set [1] (pH 8.0) was “≧200 μM” each time. On rat calcitonin receptor, the IC50 was found to be 0.065 nM.
With `CC(=O)N[C@@H](C)C(=O)N[C@@H](CO)C(=O)N[C@@H](CCC(=O)O)C(=O)N[C@@H](CC(C)C)C(=O)N[C@@H](CO)C(=O)N[C@H](C(=O)N[C@@H](C)C(=O)N[C@@H](C)C(=O)N[C@@H](CC(C)C)C(=O)NCC(=O)N[C@@H](CCCNC(=N)N)C(=O)N[C@@H](CC(C)C)C(=O)N[C@@H](CO)C(=O)N[C@@H](C)C(=O)N[C@@H](CCCCNC(=O)CC[C@H](NC(=O)CCCCCCCCCCCCCCCCCCC(=O)O)C(=O)O)C(=O)N[C@@H](CC(C)C)C(=O)N[C@@H](Cc1cnc[nH]1)C(=O)N[C@@H](CCC(=O)O)C(=O)N[C@@H](CC(C)C)C(=O)N[C@@H](C)C(=O)N[C@H](C(=O)N[C@@H](CC(C)C)C(=O)N1CCC[C@H]1C(=O)N[C@@H](CCCNC(=N)N)C(=O)N[C@H](C(=O)N[C@@H](CCC(=O)O)C(=O)N[C@H](C(=O)NCC(=O)N[C@@H](CO)C(=O)NCC(=O)N[C@@H](CO)C(=O)N1CCC[C@H]1C(N)=O)[C@@H](C)O)[C@@H](C)O)[C@@H](C)O)[C@@H](C)O` [compound 69, [N-terminal(acetyl), des1, 16K(C20 diacid-gGlu), 30S, 31G]mimylin] (Ac-ASELSTAALGRLSAK([γGlu-C20 diacid])LHELATLPRTETGSGSP-NH2), the Solubility result in data set [1] (pH 3.0), in data set [1] (pH 4.0), in data set [1] (pH 5.0), in data set [1] (pH 6.0), in data set [1] (pH 6.5) and in data set [1] (pH 7.0) was “≧200 μM” each time. Further, the Solubility result in data set [1] (pH 7.5) and in data set [1] (pH 8.0) was “≧200 μM” in each case. In addition, on rat calcitonin receptor, the IC50 was found to be 0.042 nM.

The values are drawn from US9593149B2, “Amylin and calcitonin receptor agonist” (Novo Nordisk A/S, priority 2014, dated 2017).
